Reference: patent US20250188141A1, “DECOY PEPTIDES FOR TREATING DISEASES OR CONDITIONS MODULATED BY INTERLEUKIN-33” (University of Maryland, Baltimore, priority 2022, published 2025)
No end group written: not given here.

Key:
[1] = tested on: mice challenged intratracheally with a single dose bleomycin (BLM); experiment: Acute BLM challenge model (intratracheal 0.08 U BLM), therapeutic regimen with CPP-DPs; format: in vivo, mouse; conditions: for collagen accumulation in lung / pulmonary IL-33 accumulation: end of 3 weeks, vs PBS-treated animals; for total body weight over time: intraperitoneal once a day from day 8 for 2 weeks, vs BLM-challenged, PBS-treated mice
From the text: FIG. 5. Therapeutic effects of CPP-DPs in the acute BLM challenge model. A. Time course schematic of the acute BLM challenge model. […] Data in panels B and C were pooled data from separate 3 experiments.
To test the ability of these peptides to deplete the levels of IL-33 in vivo and to assess their ability to modulate the degree of pulmonary fibrosis, these peptides were synthesized, HPLC-purified, and tested in the therapeutic regimen in mice challenged intratracheally with a single dose bleomycin (BLM). In this acute BLM challenge mode, mice received intratracheal 0.08 U of BLM or an equal volume phosphate-buffered saline (PBS) control and allowed to respond to such injury for a week without any intervention. On day 8, intraperitoneal administrations of CPP-DPs once a day were started and continued for 2 weeks. In the end of the 3 weeks, mice have been euthanized, lungs extracted, and pulmonary levels of IL-33 and collagen measured.

[2] = tested on: Wild-type C57BL/6 mice challenged with BLM; experiment: Acute BLM model in vivo (single intratracheal 0.075 U BLM), therapeutic regimen with Series 2 peptides; design: species or system mouse; conditions: for pulmonary levels of IL-33 (ELISA, lung homogenates) / total lung collagen (QuickZyme assay): 10 nmol/g intraperitoneal daily on days 5-13, day 14; for signs of toxicity (ruffled fur, hunched posture, reduced mobility, diarrhea, weight lost, tachypnea) / therapeutic effect against fibrosis: acute BLM injury model; for signs of toxicity (ruffled fur, hunched posture, reduced mobility, diarrhea, weight lost, tachypnea): in vivo; for therapeutic effect against fibrosis: therapeutic mode
From the text: FIG. 2. Design of decoy peptides in Series 2 (A), the effects of peptides 2-5 and 2-10 on pulmonary levels of IL-33 (B, D), and collagen (C, D) proteins in the acute BLM model in vivo. In panels B and D, mean ±SD values are shown. […] Wild-type C57BL/6 mice were challenged with a single intratracheal instillation of 0.075 U of BLM or PBS vehicle, and the disease was allowed to evolve for 5 days. On days 5-13, mice received daily intraperitoneal injections of 10 nmol/g of peptides 2-5 or 2-10, or PBS vehicle. Mice were euthanized on day 14, and IL-33 levels measured by ELISA in lung homogenates, whereas total lung collagen was measured using QuickZyme assays.
(§1) We propose development of a new IL-33 attenuating therapy based on CPP-DP-based strategy. […] In each peptide 1-1 and 1-2, the CPP penetratin was N-terminally fused to the DP. The final sequences of peptides 1-1 and 1-2 were […] (SEQ ID NO:69) and ROIKIWFONRRMKWKKFRRETTKRPSLKTG (SEQ ID NO:70), respectively, with the CPP portion shown in italic and the DP portions underlined. Primary fibroblasts were electroporated with FLIL33-encoding and, separately, control non-coding vehicle (NULL) plasmids, and, after 24 h, the medium was replaced with added peptides 1-1 or 1-2. Based on our experience with CPP-DPs, initial concentrations of 20 μM and 40 μM were tested. After an additional 24 h, cells were lysed and the lysates were analyzed for the levels of IL-33 by ELISA. […] The most likely explanation for this effect is based on our previous experience of depleting IPOS with CRISPR-Cas9, AdV-shRNA, and siRNA technologies (Clerman et al., J Biol Chem. (2017). 292:21653-61: Kopach et al., J Biol Chem. (2014). 289:11829-43). We previously observed that a complete or nearly complete depletion of IPO5 using these methodologies quickly leads to cell death, whereas substantial yet incomplete depletion of IPO5 levels abrogates FLIL33 without affecting cell viability. We argue that peptide 1-1 is “too effective” in binding IPO5, thus competing for it not only with FLIL33 but also with other critical molecular partners, and ultimately impeding on cell survival. We then undertook a more rigorous, unbiased approach, based on the following considerations. As stated above in relation to Example 1, there are possible multiple other regions in the N-terminal portion of FLIL33 that control its stability, subcellular localization, secretion, maturation, and functional binding of intracellular molecular partners. Targeting by DPs needs to cover the entire N-terminal part of FLIL33 and be performed in a systematic fashion, and the data integrated with the observations in Examples 1 and 2. […] We began by designing Series 2 of overlapping DPs that together cover the entire N-terminus of FLIL33. In all cases, a different CPP (TAT) is fused on the N terminus, based on the possibility that it may decrease the peptide load per cell and thus limit toxicity. […] We then proceeded to test the capacity of this peptide to deplete the levels of IL-33 in vivo and to determine whether such depletion may be protective, in the therapeutic mode, against fibrosis in the acute BLM injury model. […] Thus, peptide 2-5 fused with TAT may be a promising therapeutic agent. However, this and other peptides in this series need to be considered in detail.

IL-33 = experiment: Initial cell culture screening tests of Series 2 peptides for depletion of IL-33; format: cell-based; conditions: TAT-fused Series 2 peptide, most pronounced of the series
From the text: We propose development of a new IL-33 attenuating therapy based on CPP-DP-based strategy. […] In each peptide 1-1 and 1-2, the CPP penetratin was N-terminally fused to the DP. The final sequences of peptides 1-1 and 1-2 were […] (SEQ ID NO:69) and ROIKIWFONRRMKWKKFRRETTKRPSLKTG (SEQ ID NO:70), respectively, with the CPP portion shown in italic and the DP portions underlined. Primary fibroblasts were electroporated with FLIL33-encoding and, separately, control non-coding vehicle (NULL) plasmids, and, after 24 h, the medium was replaced with added peptides 1-1 or 1-2. Based on our experience with CPP-DPs, initial concentrations of 20 μM and 40 μM were tested. After an additional 24 h, cells were lysed and the lysates were analyzed for the levels of IL-33 by ELISA. […] The most likely explanation for this effect is based on our previous experience of depleting IPOS with CRISPR-Cas9, AdV-shRNA, and siRNA technologies (Clerman et al., J Biol Chem. (2017). 292:21653-61: Kopach et al., J Biol Chem. (2014). 289:11829-43). […]
Studies in human and mouse cell cultures. […] CPP-DPs and control CPPs will be added to cell culture, and the levels of the overexpressed proteins assessed in cell lysates by ELISA as well as by WB for the HA-tag, which is attached to the C-terminus of all of these proteins.

[3] = tested on: mice chronically challenged with BLM; experiment: Chronic BLM challenge model (BLM intraperitoneally twice a week for 33 days), treatment with CPP-DPs; format: in vivo, mouse; conditions: for total body weight over time: intraperitoneal three times a week, started after 14 days of challenge
From the text: FIG. 6. Therapeutic effects of CPP-DPs in the chronic BLM challenge model. A. Time course schematic of the chronic BLM challenge model. B. Time-dependent changes in total body weight (mean percent of initial body weight ±SD. Asterisks indicate higher (p<0.05) body weights in CPP-DP-treated compared to PBS control-treated mice. C. Individual collagen levels, μg per mg of wet lung tissue (left), and IL-33 levels, pg per mg of wet lung tissue (right), in lung homogenates from mice treated as indicated. Asterisks indicate lower (p<0.05) levels in BLM-challenged, PBS-treated control mice.
We then considered that such acute model of bleomycin injury, despite its universal use in this field of work, is well known to represent the chronic nature of human pulmonary fibrosis less accurately than the chronic model of systemic BLM delivery. In the chronic model, BLM is injected intraperitoneally twice a week for 33 days, with subsequent assessment of pulmonary changes (FIG. 6A). We challenged mice in this fashion, and, after 14 days such chronic challenge at which point the decline in their total body weight became obvious (FIG. 6B), initiated treatment with CPP-DP5, CPP-DP10, or PBS injected intraperitoneally three times a week (FIG. 6A). […] Of note, such therapy with CPP-DP5 was efficacious despite the continued challenge with repeated administration of BLM (FIG. 6A).

Primary fibroblasts = experiment: Cell viability / toxicity of peptides in FLIL33-overexpressing or NULL-transfected primary fibroblasts; format: cell-based; conditions: for effect on cell viability (toxicity to cells): initial concentrations of 20 μM and 40 μM, FLIL33-overexpressing or NULL-transfected fibroblasts, 24 h
From the text: as §1

[4] = vs CPP-DP10-treated and PBS-treated controls

Substance	collagen accumulation in lung [1]	pulmonary IL-33 accumulation [1]	total body weight over time [1]	pulmonary levels of IL-33 (ELISA, lung homogenates) [2]	total lung collagen (QuickZyme assay) [2]	signs of toxicity (ruffled fur, hunched posture, reduced mobility, diarrhea, weight lost, tachypnea) [2]	therapeutic effect against fibrosis [2]	depletion of IL-33 (IL-33)	total body weight over time [3]	collagen accumulation in lung [3, 4]	pulmonary IL-33 accumulation [3, 4]	effect on cell viability (toxicity to cells) (Primary fibroblasts)	concentrations at which the peptide remains toxic (as low as) (Primary fibroblasts; serial dilutions) [nM]	toxicity at concentrations lower than 2.5 μM (Primary fibroblasts; serial dilutions, lower concentrations)
QQKAKEVCPMYFMKLR [peptide 2-5]	significantly less collagen	significantly less	quickly recovered their body weight	attenuated the levels of IL-33	arrested deposition of collagen	Neither of these two peptides caused any signs of toxicity	encouraging therapeutic effect	exceeding 60 % of the original levels	regained their body weight in a time-dependent fashion	significantly less collagen	significantly less			
SGLMIKKEACYFRRET [2-7]	significantly less collagen	significantly less	quickly recovered their body weight											
GRKHKRHLVLAACQQQ [peptide 2-10]	not		closely followed the same trend	not	not	Neither of these two peptides caused any signs of toxicity	did not		not					
RQIKIWFQNRRMKWKKFRRETTKRPSLKTG-NH2 [peptide 1-2, ROIKIWFONRRMKWKKFRRETTKRPSLKTG]												no effect on cell viability		
RQIKIWFQNRRMKWKKFMKLRSGLMIKKEA-NH2 [peptide 1-1]												highly toxic to cells	≥ 2500	becomes non-toxic
